Key:
Assay type in all cases: biochemical
PI3K delta = biological target: T1, PI3K delta (Homo sapiens, UniProt O00329); test: PI3 kinase assay (Kinase-Glo luminescence), PI3K delta; details: Enzymatic Data; read-out: PI3K delta IC50 [umol]
T1 construct: for the full-length p110-d subunit are generated and fused by overlapping PCR; His tag (C); made in house; host or cells: baculovirus; Tn5 (Trichoplusia ni) or TiniPro insect cells
Procedure, shortened: (§1)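 Recombinant PI3K constructs (alfa 10 nM, delta 10 nM, gamma 150 nM) with 1 μM ATP and 10 μg/mL phosphatidylinositol in Tris pH 7.5, MgCl2, NaCl, CHAPS, DTT; 60 min (alfa, delta) or 120 min (gamma) at room temperature. ATP depletion read by Kinase-Glo luminescence; IC50 from 4-parameter logistic fit over 8 concentrations.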

PI3K beta = biological target: T2, PI3K beta (Homo sapiens, UniProt P42338); test: PI3 kinase assay (Kinase-Glo luminescence), PI3K beta; details: Enzymatic Data; read-out: PI3K beta IC50 [umol]
T2 construct: for the full-length p110-b subunit are generated and fused by overlapping PCR; His tag (C); made in house; host or cells: baculovirus; Tn5 (Trichoplusia ni) or TiniPro insect cells
Procedure, shortened: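 PI3Kβ (25 nM, BV-949) with 10 μg/mL phosphatidylinositol in Tris pH 7.5/MgCl2/NaCl/CHAPS/DTT buffer; reaction started with 1 μM ATP, 60 min at room temperature. ATP depletion read by Kinase-Glo luminescence; 8-point dilutions, IC50 by four-parameter logistic fit.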

PI3K gamma = biological target: T3, PI3K gamma (Homo sapiens, UniProt P48736); test: PI3 kinase assay (Kinase-Glo luminescence), PI3K gamma; details: Enzymatic Data; read-out: PI3K gamma IC50 [umol]
T3 construct: PI3Kγ BV-950 p110g(D144aa)-C-Term His Tag; His tag (C); made in house; host or cells: construct from the Roger Williams lab (MRC LMB) in pVL1393; baculovirus; Tn5 (Trichoplusia ni) or TiniPro insect cells
Procedure, shortened: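 Kinase-Glo luminescence assay with 1 μM ATP and 10 μg/mL phosphatidylinositol (final), reaction started by ATP addition. IC50 from 4-parameter logistic fit of percent inhibition at 8 compound concentrations (usually 10 down to 0.003 […]).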

PI3K alfa = biological target: T4, PI3K alfa (Homo sapiens, UniProt P42336); test: PI3 kinase assay (Kinase-Glo luminescence), PI3K alfa; details: Enzymatic Data; read-out: PI3K alfa IC50 [umol]
T4 construct: for the p110-a subunit (with a deletion of the first 20 amino acids); His tag (C); made in house; host or cells: baculovirus; Tn5 (Trichoplusia ni) or TiniPro insect cells
Procedure, shortened: as §1

T1 sequence (O00329 with tags, fused parts or gaps limits assumed): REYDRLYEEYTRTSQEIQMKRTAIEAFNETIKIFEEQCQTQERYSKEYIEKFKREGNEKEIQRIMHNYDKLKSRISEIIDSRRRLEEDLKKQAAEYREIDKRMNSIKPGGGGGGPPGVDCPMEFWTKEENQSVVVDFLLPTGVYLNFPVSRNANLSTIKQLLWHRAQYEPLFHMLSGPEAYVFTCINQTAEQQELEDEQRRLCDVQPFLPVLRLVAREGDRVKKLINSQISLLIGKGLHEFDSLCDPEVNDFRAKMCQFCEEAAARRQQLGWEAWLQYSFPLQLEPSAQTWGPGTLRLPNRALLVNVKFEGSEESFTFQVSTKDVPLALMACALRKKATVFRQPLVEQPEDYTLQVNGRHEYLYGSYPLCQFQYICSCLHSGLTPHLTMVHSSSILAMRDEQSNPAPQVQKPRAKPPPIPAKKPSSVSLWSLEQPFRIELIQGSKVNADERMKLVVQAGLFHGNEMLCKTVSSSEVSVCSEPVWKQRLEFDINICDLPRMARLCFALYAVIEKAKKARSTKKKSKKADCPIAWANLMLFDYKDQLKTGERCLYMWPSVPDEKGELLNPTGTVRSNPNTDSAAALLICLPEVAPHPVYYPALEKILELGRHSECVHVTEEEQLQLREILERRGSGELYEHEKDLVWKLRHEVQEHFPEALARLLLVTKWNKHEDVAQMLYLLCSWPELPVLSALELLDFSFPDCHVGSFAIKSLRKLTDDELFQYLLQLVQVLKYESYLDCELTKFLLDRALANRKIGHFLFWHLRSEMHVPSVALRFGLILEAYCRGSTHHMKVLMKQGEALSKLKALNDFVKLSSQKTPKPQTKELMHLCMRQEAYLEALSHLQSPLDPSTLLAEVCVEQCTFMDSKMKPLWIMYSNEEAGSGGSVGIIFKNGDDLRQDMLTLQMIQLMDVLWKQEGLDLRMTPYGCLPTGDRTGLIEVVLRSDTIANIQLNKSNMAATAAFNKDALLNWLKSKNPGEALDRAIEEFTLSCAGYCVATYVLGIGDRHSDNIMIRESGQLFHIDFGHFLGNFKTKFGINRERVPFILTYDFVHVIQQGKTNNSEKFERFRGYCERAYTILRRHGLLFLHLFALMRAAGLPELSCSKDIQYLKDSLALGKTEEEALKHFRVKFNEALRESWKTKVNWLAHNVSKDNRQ
T3 sequence (P48736 144-1102 limits assumed): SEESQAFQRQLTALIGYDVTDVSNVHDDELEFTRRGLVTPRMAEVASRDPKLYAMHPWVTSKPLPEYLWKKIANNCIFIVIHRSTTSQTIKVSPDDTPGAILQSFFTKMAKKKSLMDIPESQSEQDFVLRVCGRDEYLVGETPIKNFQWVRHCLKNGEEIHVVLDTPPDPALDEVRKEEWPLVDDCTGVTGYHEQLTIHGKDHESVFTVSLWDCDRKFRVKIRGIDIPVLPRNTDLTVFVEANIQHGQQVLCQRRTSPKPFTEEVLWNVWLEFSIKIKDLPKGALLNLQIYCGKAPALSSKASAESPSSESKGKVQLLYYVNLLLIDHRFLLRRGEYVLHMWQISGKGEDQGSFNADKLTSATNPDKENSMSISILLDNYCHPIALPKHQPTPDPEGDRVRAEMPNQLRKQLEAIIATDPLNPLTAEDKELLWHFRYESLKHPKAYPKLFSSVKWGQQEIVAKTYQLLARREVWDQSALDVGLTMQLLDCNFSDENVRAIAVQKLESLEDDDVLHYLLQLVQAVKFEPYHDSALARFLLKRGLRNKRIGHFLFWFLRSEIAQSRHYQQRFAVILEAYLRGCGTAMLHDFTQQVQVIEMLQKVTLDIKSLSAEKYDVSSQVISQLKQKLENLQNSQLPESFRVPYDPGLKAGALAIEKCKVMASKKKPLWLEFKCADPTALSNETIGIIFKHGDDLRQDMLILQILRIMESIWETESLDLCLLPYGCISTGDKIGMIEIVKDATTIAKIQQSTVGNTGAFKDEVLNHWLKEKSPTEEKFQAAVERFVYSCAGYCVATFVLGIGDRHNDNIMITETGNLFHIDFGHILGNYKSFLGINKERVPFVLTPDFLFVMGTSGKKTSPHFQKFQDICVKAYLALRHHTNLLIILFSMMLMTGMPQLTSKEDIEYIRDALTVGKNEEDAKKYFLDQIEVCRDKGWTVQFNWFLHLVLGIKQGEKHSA
T4 sequence (P42336 with tags, fused parts or gaps limits assumed): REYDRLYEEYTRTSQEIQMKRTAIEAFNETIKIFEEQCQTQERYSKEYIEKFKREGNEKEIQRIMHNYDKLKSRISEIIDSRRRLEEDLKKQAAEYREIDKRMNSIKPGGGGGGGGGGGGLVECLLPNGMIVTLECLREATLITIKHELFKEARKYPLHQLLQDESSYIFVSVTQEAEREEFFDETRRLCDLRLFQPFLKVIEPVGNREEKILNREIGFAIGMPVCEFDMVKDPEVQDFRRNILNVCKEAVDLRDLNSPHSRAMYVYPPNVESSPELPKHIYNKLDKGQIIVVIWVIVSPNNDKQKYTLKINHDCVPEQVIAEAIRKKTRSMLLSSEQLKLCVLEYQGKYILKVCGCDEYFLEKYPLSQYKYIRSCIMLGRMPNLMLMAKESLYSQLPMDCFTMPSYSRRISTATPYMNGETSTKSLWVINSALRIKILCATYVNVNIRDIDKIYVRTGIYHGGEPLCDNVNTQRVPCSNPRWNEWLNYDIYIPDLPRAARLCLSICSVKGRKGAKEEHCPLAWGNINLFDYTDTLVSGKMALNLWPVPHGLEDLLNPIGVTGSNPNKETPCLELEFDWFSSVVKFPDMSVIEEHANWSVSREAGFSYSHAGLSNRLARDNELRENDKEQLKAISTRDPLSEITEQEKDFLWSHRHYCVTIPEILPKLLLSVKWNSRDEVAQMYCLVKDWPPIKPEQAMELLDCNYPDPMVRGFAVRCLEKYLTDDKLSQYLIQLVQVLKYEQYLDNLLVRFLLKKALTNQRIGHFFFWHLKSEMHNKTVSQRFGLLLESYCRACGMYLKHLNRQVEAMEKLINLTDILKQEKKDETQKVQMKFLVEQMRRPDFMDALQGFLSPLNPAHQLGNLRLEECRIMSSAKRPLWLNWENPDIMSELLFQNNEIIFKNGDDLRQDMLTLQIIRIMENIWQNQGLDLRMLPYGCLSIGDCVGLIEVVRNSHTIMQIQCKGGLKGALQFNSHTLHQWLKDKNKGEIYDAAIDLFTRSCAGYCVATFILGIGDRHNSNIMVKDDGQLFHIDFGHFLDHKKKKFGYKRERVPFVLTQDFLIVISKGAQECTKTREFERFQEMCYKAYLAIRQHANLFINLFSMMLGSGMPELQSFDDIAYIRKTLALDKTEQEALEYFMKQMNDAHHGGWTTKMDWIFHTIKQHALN
T2 sequence (P42338 with tags, fused parts or gaps limits assumed): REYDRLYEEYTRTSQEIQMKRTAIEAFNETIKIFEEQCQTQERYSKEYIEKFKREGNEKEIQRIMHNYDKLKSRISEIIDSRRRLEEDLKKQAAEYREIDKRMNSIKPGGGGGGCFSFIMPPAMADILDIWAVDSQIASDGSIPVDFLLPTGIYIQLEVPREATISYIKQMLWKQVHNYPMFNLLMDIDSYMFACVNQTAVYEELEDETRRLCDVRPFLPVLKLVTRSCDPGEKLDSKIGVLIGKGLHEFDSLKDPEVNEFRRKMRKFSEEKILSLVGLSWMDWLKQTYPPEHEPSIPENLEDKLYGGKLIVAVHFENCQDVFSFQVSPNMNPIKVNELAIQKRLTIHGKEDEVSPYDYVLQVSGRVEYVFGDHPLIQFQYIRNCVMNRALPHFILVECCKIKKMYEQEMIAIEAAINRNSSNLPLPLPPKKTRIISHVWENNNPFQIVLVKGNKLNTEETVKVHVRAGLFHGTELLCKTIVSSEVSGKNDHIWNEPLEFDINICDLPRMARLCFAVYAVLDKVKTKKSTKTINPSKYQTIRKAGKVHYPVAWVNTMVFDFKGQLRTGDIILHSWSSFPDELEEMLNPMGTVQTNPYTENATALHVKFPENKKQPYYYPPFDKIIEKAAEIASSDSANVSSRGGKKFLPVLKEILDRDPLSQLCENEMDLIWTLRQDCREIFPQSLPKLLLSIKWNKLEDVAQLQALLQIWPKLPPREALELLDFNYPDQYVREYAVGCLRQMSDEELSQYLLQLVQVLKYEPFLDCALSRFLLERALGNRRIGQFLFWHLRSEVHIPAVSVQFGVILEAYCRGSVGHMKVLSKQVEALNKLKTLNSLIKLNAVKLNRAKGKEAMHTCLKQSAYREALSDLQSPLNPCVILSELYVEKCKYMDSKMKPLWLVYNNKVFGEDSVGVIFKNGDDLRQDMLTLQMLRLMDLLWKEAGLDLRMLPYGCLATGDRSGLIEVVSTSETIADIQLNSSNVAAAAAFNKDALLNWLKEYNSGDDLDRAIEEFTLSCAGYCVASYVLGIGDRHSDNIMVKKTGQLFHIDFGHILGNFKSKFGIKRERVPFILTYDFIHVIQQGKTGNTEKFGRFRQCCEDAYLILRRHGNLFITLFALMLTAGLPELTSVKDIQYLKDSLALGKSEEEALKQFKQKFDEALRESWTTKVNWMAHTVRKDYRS

Row | IC50 (PI3K delta) [nM] | IC50 (PI3K beta) [nM] | IC50 (PI3K gamma) [nM] | IC50 (PI3K alfa) [nM] | SMILES
1 | 421 | 7100 | > 9100 | 119 | CC(C)(C)OC(=O)NCCCOc1ccc(-c2ccc3ncc(-c4cnc(N)c(C(F)(F)F)c4)n3n2)cn1 [Example 175, (3-{5-[3-(G-Amino-5-trifluoro-methyl-pyridin-3-yl)-imidazo [1,2-b]pyridazin-6-yl]-pyridin-2-yloxy}-propyl)-carbamic acid tert-butyl ester]
2 | 26 | 19 | 3310 | 24 | Nc1ncc(-c2ccc3ncc(-c4ccc(S(N)(=O)=O)cc4)n3n2)cc1C(F)(F)F [Example 121, 4-[6-(6-Amino-5-trifluoro-methyl-pyridin-3-yl)-imidazo [1,2-b]pyridazin-3-yl]-benzene-sulfon-amide]
3 | 180 | 176 | 39 | 153 | NCCCOc1ccc(-c2ccc3ncc(-c4cnc(N)c(C(F)(F)F)c4)n3n2)cc1OC(F)(F)F [Example 63, 5-{6-[4-(3-Amino-propoxy)-3-trifluoro-methoxy-phenyl]-imidazo [1,2-b]pyridazin-3-yl}-3-trifluoro-methyl-pyridin-2-ylamine]
4 | 10 | 62 | 405 | 6 | COc1cc(-c2cnc3ccc(-c4cnc(N)c(C(F)(F)F)c4)nn23)ccc1C(=O)O [Example 109, 4-[6-(6-Amino-5-trifluoromethyl-pyridin-3-yl)-imidazo [1,2-b]pyridazin-3-yl]-2-methoxy-benzoic acid]
5 | 41 | 81 | 2440 | 82 | NCCCOc1ccc(-c2ccc3ncc(-c4cnc(N)c(C(F)(F)F)c4)n3n2)cn1 [Example 176, 5-{6-[6-(3-Amino-propoxy)-pyridin-3-yl]-imidazo-[1,2b]pyridazin-3-yl}-3-trifluoro-methyl-pyridin-2-ylamine]
6 | 22 | 139 | 1030 | 66 | Nc1ncc(-c2ccc3ncc(-c4cnc5c(ccn5CCN5CCOCC5)c4)n3n2)cc1C(F)(F)F [Example 126, 5-{3-[1-(2-Morpholin-4-yl-ethyl)-1H-pyrrolo [2,3-b]pyridin-5-yl]-imidazo [1,2-b]pyridazin-6-yl}-3-trifluoro-methyl-pyridin-2-ylamine]
7 | 207 | 212 | 1600 | 264 | Nc1ncc(-c2ccc3ncc(-c4cnc5[nH]ccc5c4)n3n2)cc1C(F)(F)F [Example 41, 5-[3-(1H- Pyrrolo [2,3-b]pyridin-5-yl)-imidazo [1,2-b]pyridazin-6-yl]-3-trifluoro-methyl-pyridin-2-ylamine]
8 | 2440 | 6790 | > 9100 | 1120 | COc1ccc(-c2ccc3ncc(-c4cnc(N)c(C(F)(F)F)c4)n3n2)cc1F [Example 48, 5-[6-(3-Fluoro-4-methoxy-phenyl)-imidazo [1,2-b]pyridazin-3-yl]-3-trifluoro-methyl-pyridin-2-ylamine]
9 | 60 | 24 | 401 | 33 | COc1cc(-c2ccc3ncc(-c4cnc(N)c(C(F)(F)F)c4)n3n2)ccc1OCCN [Example 59, 5-{6-[4-(2-Amino-ethoxy)-3-methoxy-phenyl]-imidazo [1,2-b]pyridazin-3-yl}-3-trifluoro-methyl-pyridin-2-ylamine]

Second part, the compound before the results:

Row | SMILES | IC50 (PI3K delta) [nM] | IC50 (PI3K beta) [nM] | IC50 (PI3K gamma) [nM] | IC50 (PI3K alfa) [nM]
10 | Nc1ncc(-c2ccc3ncc(-c4ccc(C(=O)N5CCN(CCN6CCOCC6)CC5)c(F)c4)n3n2)cc1C(F)(F)F [Example 106, {4-[6-(6-Amino-5-trifluoro-methyl-pyridin-3-yl)-imidazo [1,2-b]pyridazin-3-yl]-2-fluoro-phenyl}-[4-(2-morpholin-4-yl-ethyl)-piperazin-1-yl]-methanone] | 291 | > 9100 | 788 | 171
11 | CCN(CC)CCNC(=O)c1ccc(-c2cnc3ccc(-c4cnc(N)c(C(F)(F)F)c4)nn23)cc1F [Example 108, 4-[6-(6-Amino-5-trifluoro-methyl-pyridin-3-yl)-imidazo [1,2-b]pyridazin-3-yl]-N-(2-diethyl-amino-ethyl)-2-fluoro-benzamide] | 142 | 575 | 565 | 91
12 | CC(C)(C)OC(=O)N1CCC(Oc2ccc(-c3ccc4ncc(-c5cnc(N)c(C(F)(F)F)c5)n4n3)cc2)CC1 [Example 162, 4-{4-[3-(6-Amino-5-trifluoro-methyl-pyridin-3-yl)-imidazo [1,2-b]pyridazin-6-yl]-phenoxy}-piperidine-1-carboxylic acid tert-butyl ester] | > 9100 | > 9100 | > 9100 | 379
13 | Nc1ncc(-c2ccc3ncc(-c4ccc(C(=O)N5CCN(Cc6ccccn6)CC5)c(F)c4)n3n2)cc1C(F)(F)F [Example 101, {4-[6-(6-Amino-5-trifluoro-methyl-pyridin-3-yl)-imidazo [1,2-b]pyridazin-3-yl]-2-fluoro-phenyl}-(4-pyridin-2-ylmethyl-piperazin-1-yl)-methanone] | 30 | 168 | 1170 | 8
14 | COc1cc(-c2cnc3ccc(-c4cnc(N)c(C(F)(F)F)c4)nn23)c(F)cc1C(=O)NCCN1CCS(=O)(=O)CC1 [Example 160, 4-[6-(6-Amino-5-trifluoro-methyl-pyridin-3-yl)-imidazo [1,2-b]pyridazin-3-yl]-N-[2-(1,1-dioxo-1lambda*6*- thio-morpholin-4-yl)-ethyl]-5-fluoro-2-methoxy-benzamide] | 39 | 144 | 1260 | 22
15 | COc1cc(-c2cnc3ccc(-c4cnc(N)c(C(F)(F)F)c4)nn23)c(F)cc1C(=O)NCCN1CCOCC1 [Example 158, 4-[6-(6-Amino-5-trifluoro-methyl-pyridin-3-yl)-imidazo [1,2-b]pyridazin-3-yl]-5-fluoro-2-methoxy-N-(2-morpholin-4-yl-ethyl)-benzamide] | 113 | 388 | > 9100 | 38
16 | NCCCOc1ccc(-c2cnc3ccc(-c4cnc(N)c(C(F)(F)F)c4)nn23)cc1OC(F)(F)F [Example 43, 5-{3-[4-(3-Amino-propoxy)-3-trifluoro-methoxy-phenyl]-imidazo[1,2-b]pyri-dazin-6-yl}-3-trifluoro-methyl-pyridin-2-ylamine] | 403 | 528 | 8440 | 472
17 | COc1cc(-c2ccc3ncc(-c4cnc5[nH]ccc5c4)n3n2)ccc1OCCN1CCCC1=O [Example 110, 1-(2-{2-Methoxy-4-[3-(1H-pyrrolo [2,3-b]pyridin-5-yl)-imidazo [1,2-b]pyridazin-6-yl]-phenoxy}-ethyl)-pyrrolidin-2-one] | 77 | 1180 | 1370 | 40
18 | CC(=O)c1ccc(CNC(=O)c2ccc(-c3cnc4ccc(-c5cnc(N)c(C(F)(F)F)c5)nn34)cc2)cc1 [Example 84, N-(4-Acetyl-benzyl)-4-[6-(6-amino-5-trifluoromethyl-pyridin-3-yl)-imidazo [1,2-b]pyridazin-3-yl]-benzamide] | 308 | 5560 | 3240 | 87
19 | Nc1ncc(-c2cnc3ccc(-c4ccc(OCCNC(=O)C5CC5)cc4)nn23)cc1C(F)(F)F [Example 157, Cyclo-propane-carboxylic acid (2-{4-[3-(6-amino-5-trifluoro-methyl-pyridin-3-yl)-imidazo [1,2-b]pyridazin-6-yl]-phenoxy}-ethyl)-amide] | 202 | 842 | 2040 | 21
20 | Nc1ncc(-c2ccc3ncc(-c4ccc(C(=O)NCCN5CCS(=O)(=O)CC5)cc4F)n3n2)cc1C(F)(F)F [Example 153, 4-[6-(6-Amino-5-trifluoro-methyl-pyridin-3-yl)-imidazo [1,2-b]pyridazin-3-yl]-N-[2-(1,1-dioxo-1lambda*6*- thio-morpholin-4-yl)-ethyl]-3-fluoro-benzamide] | 13 | 271 | 1260 | 8
21 | COc1ccc(-c2ccc3ncc(-c4cnc(N)c(OC)n4)n3n2)cc1OC [Example 68, 5-[6-(3,4-Dimethoxy-phenyl)-imidazo [1,2-b]pyridazin-3-yl]-3-methoxy-pyrazin-2-ylamine] | 26 | 51 | 1300 | 9
